Experimental data from ChEMBL document CHEMBL1201862, “PubChem BioAssay data set” (2004).
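In this assay, cells in 96-well plates receive the compound at five concentrations for 48 hours. Endpoints are linearly interpolated between the surrounding concentrations. GI50 = concentration required for 50% inhibition of growth.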 Active and inactive are the calls of the source. Rule as the data show it: active = GI50 up to about 1.1 µM and inactive = higher.

Legend:
Assay in all cases: NCI-60 cell line screen, 48 h
[1] = tested on: HCT-116
[2] = tested on: NCI-H522
[3] = tested on: LOX IMVI
[4] = tested on: CCRF-CEM
[5] = tested on: 786-0
[6] = tested on: OVCAR-4
[7] = tested on: A498
[8] = tested on: PC-3
[9] = tested on: HCT-15
[10] = tested on: NCI-H460
[11] = tested on: NCI-H226
[12] = tested on: EKVX
[13] = tested on: SF-539
[14] = tested on: RXF 393
[15] = tested on: SK-MEL-2
[16] = tested on: DU-145
[17] = tested on: UACC-257
[18] = tested on: ACHN
[19] = tested on: KM12
[20] = tested on: RPMI-8226
[21] = tested on: SN12C
[22] = tested on: Hs-578T
[23] = tested on: U-251
[24] = tested on: HT-29
[25] = tested on: SNB-19
[26] = tested on: MDA-MB-231
[27] = tested on: OVCAR-5
[28] = tested on: SW-620
[29] = tested on: UO-31
[30] = tested on: MDA-N
[31] = tested on: M14
[32] = tested on: SK-MEL-5
[33] = tested on: SR
[34] = tested on: UACC-62
[35] = tested on: MOLT-4
[36] = tested on: CAKI-1
[37] = tested on: Malme-3M
[38] = tested on: NCI/ADR-RES
[39] = tested on: OVCAR-3
[40] = tested on: HL-60
[41] = tested on: SNB-75
[42] = tested on: SF-295
[43] = tested on: IGROV-1
[44] = tested on: TK-10
[45] = tested on: HOP-62
[46] = tested on: BT-549
[47] = tested on: OVCAR-8
[48] = tested on: SK-OV-3
[49] = tested on: A549
[50] = tested on: NCI-H23
[51] = tested on: COLO 205
[52] = tested on: SK-MEL-28
[53] = tested on: HOP-92
[54] = tested on: MCF7
[55] = tested on: MDA-MB-435
[56] = tested on: SF-268
[57] = tested on: HCC 2998
[58] = tested on: K562
[59] = tested on: T47D

Measured: GI50

CCN1CCCCC(=N\O)/C(=N/O)CCCC1
> 100 µM: [9]
inactive: [1] > 100 µM | [2] > 100 µM | [3] > 100 µM | [4] > 100 µM | [5] > 100 µM | [6] > 100 µM | [7] > 100 µM | [8] > 100 µM | [10] > 100 µM | [11] > 100 µM | [12] 26.1 µM | [13] > 100 µM | [14] > 100 µM | [15] > 100 µM | [16] > 100 µM | [17] > 100 µM | [18] > 100 µM | [19] > 100 µM | [20] > 100 µM | [21] > 100 µM | [22] > 100 µM | [23] > 100 µM | [24] > 100 µM | [25] > 100 µM | [26] > 100 µM | [27] > 100 µM | [28] > 100 µM | [29] > 100 µM | [30] > 100 µM | [31] > 100 µM | [32] > 100 µM | [33] > 100 µM | [34] > 100 µM | [35] > 100 µM | [36] > 100 µM | [37] > 100 µM | [38] > 100 µM | [39] > 100 µM | [40] > 100 µM | [41] > 100 µM | [42] > 100 µM | [43] > 100 µM | [44] > 100 µM | [45] > 100 µM | [46] > 100 µM | [47] > 100 µM | [48] > 100 µM | [49] > 100 µM | [50] > 100 µM | [51] > 100 µM | [52] > 100 µM | [53] > 100 µM | [54] > 100 µM | [55] > 100 µM | [56] > 100 µM

CCOC(=O)C(Cc1c(-c2[nH]c3ccccc3c2CC(NC(=O)CNC(C)=O)C(=O)OCC)[nH]c2ccccc12)NC(=O)CNC(C)=O (stereo not given)
inactive: [1] > 100 µM | [2] 27.9 µM | [4] > 100 µM | [6] > 100 µM | [7] 65 µM | [57] 23.1 µM | [8] > 100 µM | [10] > 100 µM | [12] > 100 µM | [15] 18.6 µM | [16] > 100 µM | [17] 27.4 µM | [19] > 100 µM | [20] > 100 µM | [21] 56 µM | [22] 32.6 µM | [23] > 100 µM | [24] > 100 µM | [25] > 100 µM | [26] 16.5 µM | [27] > 100 µM | [28] > 100 µM | [29] 77.4 µM | [30] > 100 µM | [31] 71.6 µM | [32] 29.9 µM | [33] 40.4 µM | [34] 74.3 µM | [35] 53.2 µM | [36] > 100 µM | [37] 20 µM | [39] 42.3 µM | [41] 22.1 µM | [42] > 100 µM | [43] > 100 µM | [44] > 100 µM | [45] > 100 µM | [46] > 100 µM | [48] > 100 µM | [49] > 100 µM | [50] > 100 µM | [51] 18.6 µM | [52] 45.4 µM | [53] 26.3 µM | [55] > 100 µM | [56] 45.5 µM
> 100 µM: [9]

C=C[C@@H](C)[C@H](NS(=O)(=O)c1ccc(C)cc1)C(=O)OCC
inactive: [1] 35.5 µM | [2] 20.6 µM | [3] 19.7 µM | [4] 28.2 µM | [5] 40.8 µM | [6] 27.2 µM | [7] 48.5 µM | [8] 32.4 µM | [10] 42.2 µM | [11] > 100 µM | [12] 30.8 µM | [13] > 100 µM | [14] 42.3 µM | [15] 33.3 µM | [16] 37.1 µM | [17] 24.9 µM | [18] 35.6 µM | [19] 28.1 µM | [20] 14 µM | [21] > 100 µM | [22] 19.7 µM | [23] 33.5 µM | [24] 27.2 µM | [25] 74 µM | [26] > 100 µM | [27] 26.2 µM | [28] 40.3 µM | [29] 31.3 µM | [30] 28 µM | [31] 54.1 µM | [33] 30.8 µM | [34] 12.8 µM | [35] 50.6 µM | [37] 39.7 µM | [38] 41.3 µM | [39] 20.7 µM | [40] 57 µM | [41] 15.3 µM | [42] 21.2 µM | [43] 25.8 µM | [44] 52.6 µM | [45] > 100 µM | [46] 76.4 µM | [47] 40.2 µM | [48] 36.6 µM | [49] 32 µM | [50] 39.4 µM | [51] 52.2 µM | [52] 35.9 µM | [54] 28.8 µM | [58] 39.7 µM | [55] 21.4 µM | [56] 32 µM
31.3 µM: [9]

C=C1C(=O)C23CC1C[C@H](OC(C)=O)C2C1(C)C(OC(C)=O)C[C@H](O)C(C)(C)[C@H]1C(O)[C@@H]3OC(C)=O (stereo not given in full)
inactive: [1] 5.02 µM | [2] 1.61 µM | [3] 14.9 µM | [4] 2.24 µM | [5] 7.87 µM | [6] 10.8 µM | [7] 15.1 µM | [57] 21.2 µM | [8] 11.1 µM | [10] 26.7 µM | [11] 22.1 µM | [12] 13.1 µM | [13] 2.43 µM | [14] 7.24 µM | [15] 14.8 µM | [16] 18.1 µM | [17] 11.9 µM | [18] 11.9 µM | [59] 6.67 µM | [19] 33 µM | [20] 4.27 µM | [21] 8.07 µM | [22] 15.8 µM | [23] 15.3 µM | [24] 15.5 µM | [25] 21.5 µM | [26] 7.19 µM | [27] 14.6 µM | [28] 2.48 µM | [29] 16.9 µM | [31] 6.5 µM | [32] 14.6 µM | [33] 7.48 µM | [34] 13.3 µM | [35] 2.73 µM | [36] 16.4 µM | [37] 7.01 µM | [38] > 100 µM | [39] 7.18 µM | [40] 3.66 µM | [41] 18.8 µM | [42] 24.8 µM | [43] 16.5 µM | [44] 3.79 µM | [45] 18.9 µM | [46] 3.03 µM | [47] 2.96 µM | [48] 24.8 µM | [49] 22.9 µM | [50] 12.6 µM | [51] 4.13 µM | [52] 11.9 µM | [53] 9.29 µM | [54] 5.78 µM | [58] 3.56 µM | [55] 8.09 µM | [56] 13.4 µM
10.4 µM: [9]

CO[C@H]1C[C@H](n2cc(C)c(=O)[nH]c2=O)O[C@@H]1CO
> 100 µM: [9]
inactive: [1] > 100 µM | [3] > 100 µM | [4] > 100 µM | [5] > 100 µM | [6] > 100 µM | [7] > 100 µM | [57] > 100 µM | [8] > 100 µM | [10] > 100 µM | [11] > 100 µM | [12] > 100 µM | [13] > 100 µM | [14] > 100 µM | [16] > 100 µM | [17] > 100 µM | [18] > 100 µM | [19] > 100 µM | [20] > 100 µM | [21] > 100 µM | [22] > 100 µM | [23] > 100 µM | [24] > 100 µM | [25] > 100 µM | [26] > 100 µM | [27] > 100 µM | [28] > 100 µM | [29] > 100 µM | [30] > 100 µM | [31] > 100 µM | [32] > 100 µM | [33] > 100 µM | [34] > 100 µM | [35] > 100 µM | [36] > 100 µM | [37] > 100 µM | [38] > 100 µM | [39] > 100 µM | [40] > 100 µM | [41] > 100 µM | [42] > 100 µM | [43] > 100 µM | [44] > 100 µM | [45] > 100 µM | [46] > 100 µM | [47] > 100 µM | [48] > 100 µM | [49] > 100 µM | [50] > 100 µM | [51] > 100 µM | [52] > 100 µM | [54] > 100 µM | [58] > 100 µM | [55] > 100 µM | [56] > 100 µM
